From US20250129091A1, “THIENOPYRROLOTRIAZINE COMPOUNDS, THEIR PREPARATION AND THEIR THERAPEUTIC USE” (Sanofi, priority 2022, published 2025) come the findings set out here.

By IC50 is commonly meant the concentration that inhibits the measured activity by half.

SMILES strings stand for the structures. Structures can show the parent of a compound that is named as a salt.

The first assay relates to NLRP3 inflammasome. Description: IL-1β secretion assay (LPS-primed, nigericin-activated THP-1 cells, MSD readout). The format is cell-based. As to conditions: Homo sapiens, THP-1, LPS-primed, read-out: IL1b IC50. The procedure:
Monocytic THP-1 cells (DSMZ) were maintained in RPMI media (RPMI 1640 Medium (1×) +10% FBS, Eurobio CVFSVFOO—OU). Cells were then plated at 16,000 cells per well in 96-well round bottom cell culture plates (TPP, ref 92097) and maintained with RPMI and 0.1% Bovine Serum Albumin solution. Activation of the NLRP3 inflammasome requires both an NF-kB-dependent priming step and the addition of a NLRP3 activator. The priming step was induced by LPS (10 ng/mL, Sigma, ref:L4391) for 3 h at 37° C., then compound, in a 1:3.10 serial dilution series in DMSO 1:100, and the activator nigericin (Sigma Aldrich, ref: SML1779) 10 μM (final concentration) were added to the cells and co-incubated for 2 h. 50 μL supernatant was removed, and IL-1β levels were monitored using an MSD assay (Electro Chemical Luminescence Immunoassay (ECLI) according to manufacturers' instructions.
IC50 values were calculated from the plot of percentage of inhibition versus the inhibitor concentration by a logistics fit according to: y=A2+(A1−A2)/(1+(x/IC50)^p) where y is the %-inhibition at the inhibitor concentration, x. A1 is the lowest inhibition value, i.e., 0%, and A2 the maximum inhibition value, i.e., 100%. The exponent, p, is the Hill coefficient. The curve fitting was conducted with an internally developed software.
Regarding `CC(C)c1nn(CC(=O)Nc2ccn(C)n2)c(=O)c2cc3ccsc3n12` [Example 54, 2-(12-isopropyl-9-oxo-3-thia-1,10,11-triazatricyclo[6.4.0.02,6]dodeca-2(6),4,7,11-tetraen-10-yl)-N-(1-methylpyrazol-3-yl)acetamide], the IC50 stood at 1.71 µM.

In the case of `CC(C)c1nn(CC(=O)Nc2ccc3cnn(C)c3c2)c(=O)c2cc3ccsc3n12` [Example 27, 2-(8-isopropyl-5-oxothieno[3′,2′:4,5]pyrrolo[1,2-d][1,2,4]triazin-6(5H)-yl)-N-(1-methyl-1H-indazol-6-yl)acetamide formate], the IC50 stood at 1.03 µM. For `CC(C)c1nn(CC(=O)N[C@@H]2CCCN(c3nccn3C)C2)c(=O)c2cc3ccsc3n12` [Example 45, (R)-2-(8-isopropyl-5-oxothieno[3′,2′:4,5]pyrrolo[1,2-d][1,2,4]triazin-6(5H)-yl)-N-(1-(1-methyl-1H-imidazol-2-yl)piperidin-3-yl)acetamide], the IC50 was found to be 1.53 µM. As to `CCc1nn(CC(=O)N[C@@H]2CCCN(C3CC3)C2)c(=O)c2cc3ccsc3n12` [Example 60, N-[(3R)-1-cyclopropyl-3-piperidyl]-2-(12-ethyl-9-oxo-3-thia-1,10,11-triazatricyclo [6.4.0.02,6]dodeca-2(6),4,7,11-tetraen-10-yl)acetamide], the IC50 is 0.13 µM.

Take `CC(C)c1nn(CC(=O)NC2CCCN(C3CCC3(C)C)C2)c(=O)c2cc3ccsc3n12` (racemic) [Example 57, 2-(12-isopropyl-9-oxo-3-thia-1,10,11-triazatricyclo[6.4.0.02,6]dodeca-2(6),4,7,11-tetraen-10-yl)-N-[rac-(3R)-1-(2,2-dimethylcyclobutyl)-3-piperidyl]acetamide]: the IC50 came out at 1.01 µM. Regarding `CCOC(=O)C(C)(C)N1CCCC(NC(=O)Cn2nc(C(C)C)n3c(cc4ccsc43)c2=O)C1` (stereo not shown) [Example 80, ethyl 2-methyl-2-[3-[[2-(8-isopropyl-5-oxothieno[3′,2′:4,5]pyrrolo[1,2-d][1,2,4]triazin-6(5H)-yl)acetyl]amino]piperidin-1-yl]propanoate], the IC50 came out at 0.322 µM. Still for that read-out and setting: under `CCCc1nn(CC(=O)N[C@@H]2CCCN(C3CC3)C2)c(=O)c2cc3ccsc3n12` [Example 72, N-[(3R)-1-cyclopropylpiperidin-3-yl]-2-(9-oxo-12-propyl-3-thia-1,10,11-triazatricyclo [6.4.0.02,6]dodeca-2(6),4,7,11-tetraen-10-yl)acetamide] stands over 10 µM; under `CC(C)c1nn(CC(=O)N[C@@H]2CCN(C)C2)c(=O)c2cc3ccsc3n12` [Example 76, N-[(3R)-1-methylpyrrolidin-3-yl]-2-(8-isopropyl-5-oxothieno[3′,2′:4,5]pyrrolo[1,2-d][1,2,4]triazin-6(5H)-yl)acetamide], 0.978 µM.

Consider `CC(C)c1nn(CC(=O)Nc2cccnc2)c(=O)c2cc3ccsc3n12` [Example 56, 2-(12-isopropyl-9-oxo-3-thia-1,10,11-triazatricyclo[6.4.0.02,6]dodeca-2(6),4,7,11-tetraen-10-yl)-N-(3-pyridyl)acetamide], for which the IC50 is 1.47 µM. `CC(C)c1nn(CC(=O)N[C@@H]2CCCN(C[C@@H](C)O)C2)c(=O)c2cc3ccsc3n12` [Example 78, N-[(3R)-1-[(2R)-2-hydroxypropyl]piperidin-3-yl]-2-(8-isopropyl-5-oxothieno[3′,2′:4,5]pyrrolo [1,2-d][1,2,4]triazin-6(5H)-yl)acetamide]: the IC50 stood at 0.326 µM.

As to `CC(=O)N1CCC[C@@H](NC(=O)Cn2nc(C(C)C)n3c(cc4ccsc43)c2=O)C1` [Example 42, (R)—N-(1-acetylpiperidin-3-yl)-2-(8-isopropyl-5-oxothieno[3′,2′:4,5]pyrrolo[1,2-d][1,2,4]triazin-6(5H)-yl)acetamide], the IC50 worked out at 1.15 µM. On to `CC(C)c1nn(CC(=O)Nc2ccc3scnc3c2)c(=O)c2cc3ccsc3n12` [Example 15, N-(benzo[d]thiazol-5-yl)-2-(8-isopropyl-5-oxothieno[3′,2′:4,5]pyrrolo[1,2-d][1,2,4]triazin-6(5H)-yl)acetamide], for which the IC50 worked out at 2.74 µM. On the same count and under the same terms, as for `CC(C)c1nn(C(C)C(=O)N[C@@H]2CCCN(C3CC3)C2)c(=O)c2cc3ccsc3n12` (stereo partly drawn) [Example 26, N—((R)-1-cyclopropylpiperidin-3-yl)-2-(8-isopropyl-5-oxothieno[3′,2′:4,5]pyrrolo[1,2-d][1,2,4]triazin-6(5H)-yl)propanamide formate], the figure is 1.99 µM; as for `CC(C)c1nn(CC(=O)Nc2ccncn2)c(=O)c2cc3ccsc3n12` [Example 66, 2-(12-isopropyl-9-oxo-3-thia-1,10,11-triazatricyclo[6.4.0.02,6]dodeca-2(6),4,7,11-tetraen-10-yl)-N-pyrimidin-4-yl-acetamide], 2.07 µM. Consider `CC(C)c1nn(CC(=O)Nc2ccc3ncsc3c2)c(=O)c2cc3ccsc3n12` [Example 12, N-(benzo[d]thiazol-6-yl)-2-(8-isopropyl-5-oxothieno[3′,2′:4,5]pyrrolo[1,2-d][1,2,4]triazin-6(5H)-yl)acetamide], for which the IC50 worked out at 0.54 µM.

As to `Cc1cc2cc3c(=O)n(CC(=O)N[C@@H]4CCCN(C)C4)nc(C(C)C)n3c2s1` [Example 9, (R)-2-(8-isopropyl-2-methyl-5-oxothieno[3′,2′:4,5]pyrrolo[1,2-d][1,2,4]triazin-6(5H)-yl)-N-(1-methylpiperidin-3-yl)acetamide 2,2,2-trifluoroacetate], the IC50 was 9.56 µM. On to `CC(C)c1nn(CC(=O)NC2CN(C3CC3)CC(F)(F)C2)c(=O)c2cc3ccsc3n12` (stereo not shown) [Example 63, N-(1-cyclopropyl-5,5-difluoropiperidin-3-yl)-2-(8-isopropyl-5-oxothieno[3′,2′:4,5]pyrrolo [1,2-d][1,2,4]triazin-6(5H)-yl)acetamide 2,2,2-trifluoroacetate], for which the IC50 was determined as 1.66 µM.

Take `CC(C)c1nn(CC(=O)NC2CCNC(=O)C2)c(=O)c2cc3ccsc3n12` (stereo not shown) [Example 85, 2-(12-isopropyl-9-oxo-3-thia-1,10,11-triazatricyclo[6.4.0.02,6]dodeca-2(6),4,7,11-tetraen-10-yl)-N-(2-oxo-4-piperidyl)acetamide]: the IC50 was over 10 µM.

Turning to `COc1ccc(NC(=O)Cn2nc(C(C)C)n3c(cc4ccsc43)c2=O)cn1` [Example 16, 2-(8-isopropyl-5-oxothieno[3′,2′:4,5]pyrrolo[1,2-d][1,2,4]triazin-6(5H)-yl)-N-(6-methoxypyridin-3-yl)acetamide], the IC50 was 1.52 µM. As for `CC(C)c1nn(CC(=O)Nc2ccccn2)c(=O)c2cc3ccsc3n12` [Example 58, 2-(12-isopropyl-9-oxo-3-thia-1,10,11-triazatricyclo[6.4.0.02,6]dodeca-2(6),4,7,11-tetraen-10-yl)-N-(2-pyridyl)acetamide], the IC50 came out at 0.657 µM.

The assay is the same for the next values; noted with them: LPS-primed, read-out: IL1b IC50.
On to `CC(O)c1nn(CC(=O)N[C@@H]2CCCN(C3CCC3)C2)c(=O)c2cc3ccsc3n12` (single isomer, unassigned) [Example 50], for which the IC50 was 0.65 µM. Turning to `CC(O)c1nn(CC(=O)N[C@@H]2CCCN(C3CCC3)C2)c(=O)c2cc3ccsc3n12` (single isomer, unassigned) [Example 81], the IC50 was over 10 µM.
